Tested on: RAW264.7 macrophages
Assay: Phagocytosis assay with pHrodo green E. coli bioparticles
Assay type: cell-based
Details: additional incubation, regardless of LPS dose
Protocol: The RAW264.7 macrophage cells (ATCC Cat# TIB-71, RRID: CVCL_0493) were grown in sterile media which consisted of DMEM high glucose, 10% FBS, 2mM L-glutamine, 1x Pen-strep and 1x sodium pyruvate in a humidified 5% CO2 incubator at 37°C. RAW264.7 were maintained in […] tissue culture flasks and plated at a density of 1 × 10^4 cells in triplicate in 96-well plates for assays. Cells were stimulated with either lipopolysaccharide (LPS O111:B4; Sigma Cat#L2630) at 100ng/mL or 1000ng/mL (750EU/mL or 7500 EU/mL, respectively). One hour prior to this stimulation the cells were pre-treated with the CB2 inverse agonist SMM-189 at 3μM or 7 μm or its vehicle. Specifically for cell culture experiments, SMM-189 was formulated with 40% ethanol (v/v), 20% tween-20 (v/v) and 40% saline (v/v). A phagocytosis assay was conducted 24 h after LPS.
The phagocytosis assay was performed using pHrodo green E. coli bioparticles (Invitrogen Cat# P35366) according to the manufacturer’s instructions. Five images per well were then collected every 30 min for 24 h on an EVOS M7000 microscope (Invitrogen, ThermoFisher Scientific). The cells were maintained for this duration using an on-stage incubator kept at 37°C and 5% CO2. Analysis of the collected images was performed using EVOS Celleste software (version 5.0), which counted the cells and then measured the integrated optical density of fluorescence within each well over the 24-hour time course. Analysis was conducted on the average integrated optical density across triplicate wells. Results were consistent across duplicate experimental replicates.

In the case of `C=C1[C@@H](C)[C@H]2[C@H](Cc3ccccc3)NC(=O)[C@]23[C@H](OC(C)=O)/C=C/[C@@](C)(O)C(=O)[C@@H](C)C/C=C/[C@H]3[C@@H]1O` [cytochalasin D, reference compound], the “GFP expression (phagocytosis control)” value is reported as “significantly restricted”.

From article PMC11438102, “Modulation of cannabinoid receptor 2 alters neuroinflammation and reduces formation of alpha-synuclein aggregates in a rat model of nigral synucleinopathy” (Journal of Neuroinflammation, 2024)
